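Each compound was tested at five concentrations against cells in 96-well plates for 48 hours. The concentration for 50% growth inhibition is given as GI50. Definition used: TGI = concentration required for complete inhibition of growth.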
How the values were obtained:
Assay in all cases: NCI tumour cell line growth inhibition, 48 h
[1] = tested on: U251 CNS
[2] = tested on: RXF 393 renal
[3] = tested on: HCC-2998 colon
[4] = tested on: COLO 205 colon
[5] = tested on: SK-MEL-5 melanoma
[6] = tested on: OVCAR-8 ovarian
[7] = tested on: SF-268 CNS
[8] = tested on: TK-10 renal
[9] = tested on: HCT-15 colon
[10] = tested on: UO-31 renal
[11] = tested on: HOP-62 NSCLC
[12] = tested on: SW-620 colon
[13] = tested on: SK-MEL-2 melanoma
[14] = tested on: OVCAR-3 ovarian
[15] = tested on: CCRF-CEM leukemia
[16] = tested on: NCI-H23 lung
[17] = tested on: LOX IMVI melanoma
[18] = tested on: ACHN renal
[19] = tested on: T-47D breast
[20] = tested on: BT-549 breast
[21] = tested on: SNB-19 CNS
[22] = tested on: M14 melanoma
[23] = tested on: HL-60(TB) leukemia
[24] = tested on: UACC-62 melanoma
[25] = tested on: NCI-H226 lung
[26] = tested on: SR leukemia
[27] = tested on: IGROV1 ovarian

Q: `[N-]=[N+]=Nc1ncc(-c2ccc(C(F)(F)F)cc2)c(NC2CCCCCC2)n1` was tested. Which GI50 [1] did it give?
A: > 10 µM

Q: And the TGI [1]?
A: > 10 µM

Q: And the GI50 [2]?
A: > 10 µM

Q: And the TGI [2]?
A: > 10 µM

Q: What about the GI50 [3] of the same molecule?
A: > 10 µM

Q: What about the TGI [3] of the same molecule?
A: > 10 µM

Q: What about the GI50 [4] of the same molecule?
A: > 10 µM

Q: What about the TGI [4] of the same molecule?
A: > 10 µM

Q: What about the GI50 [5] of the same molecule?
A: > 10 µM

Q: What about the TGI [5] of the same molecule?
A: > 10 µM

Q: What about the GI50 [6] of the same molecule?
A: > 10 µM

Q: What about the TGI [6] of the same molecule?
A: > 10 µM

Q: What about the GI50 [7] of the same molecule?
A: > 10 µM

Q: And the TGI [7]?
A: > 10 µM

Q: And the GI50 [8]?
A: > 10 µM

Q: What about the TGI [8] of the same molecule?
A: > 10 µM

Q: And the GI50 [9]?
A: > 10 µM

Q: And the TGI [9]?
A: > 10 µM

Q: What about the GI50 [10] of the same molecule?
A: > 10 µM

Q: And the TGI [10]?
A: > 10 µM

Q: What about the GI50 [11] of the same molecule?
A: > 10 µM

Q: What about the TGI [11] of the same molecule?
A: > 10 µM

Q: What about the GI50 [12] of the same molecule?
A: > 10 µM

Q: And the TGI [12]?
A: > 10 µM

Q: What about the GI50 [13] of the same molecule?
A: > 10 µM

Q: And the TGI [13]?
A: > 10 µM

Q: What about the GI50 [14] of the same molecule?
A: > 10 µM

Q: What about the TGI [14] of the same molecule?
A: > 10 µM

Q: What about the GI50 [15] of the same molecule?
A: > 10 µM

Q: And the TGI [15]?
A: > 10 µM

Q: What about the GI50 [16] of the same molecule?
A: > 10 µM

Q: And the TGI [16]?
A: > 10 µM

Q: And the GI50 [17]?
A: > 10 µM

Q: And the TGI [17]?
A: > 10 µM

Q: And the GI50 [18]?
A: > 10 µM

Q: What about the TGI [18] of the same molecule?
A: > 10 µM

Q: What about the GI50 [19] of the same molecule?
A: > 10 µM

Q: And the TGI [19]?
A: > 10 µM

Q: And the GI50 [20]?
A: > 10 µM

Q: And the TGI [20]?
A: > 10 µM

Q: What about the GI50 [21] of the same molecule?
A: > 10 µM

Q: What about the TGI [21] of the same molecule?
A: > 10 µM

Q: What about the GI50 [22] of the same molecule?
A: > 10 µM

Q: And the TGI [22]?
A: > 10 µM

Q: And the GI50 [23]?
A: > 10 µM

Q: What about the TGI [23] of the same molecule?
A: > 10 µM

Q: What about the GI50 [24] of the same molecule?
A: > 10 µM

Q: And the TGI [24]?
A: > 10 µM

Q: What about the GI50 [25] of the same molecule?
A: > 10 µM

Q: What about the TGI [25] of the same molecule?
A: > 10 µM

Q: What about the GI50 [26] of the same molecule?
A: > 10 µM

Q: And the TGI [26]?
A: > 10 µM

Q: What about the GI50 [27] of the same molecule?
A: > 10 µM

Q: What about the TGI [27] of the same molecule?
A: > 10 µM

Source: PubChem BioAssay (NCI)
